Patent US20250332149A1, “PIPERIDINE COMPOUNDS AND PHARMACEUTICAL COMPOSITIONS” (Lumos Pharma, Inc., priority 2024, published 2025)

Assay: Phase 1 study Part 1: plasma PK and relative bioavailability of LUM-201 tablets vs capsule
Assay type: in vivo, human
Conditions: for % AUCex, Arithmetic Mean / % AUCex, Geometric Mean / Clast, Arithmetic Mean / Clast, Geometric Mean / DNAUC0-inf, Arithmetic Mean / DNAUC0-inf, Geometric Mean / DNAUC0-last, Arithmetic Mean / DNAUC0-last, Geometric Mean / DNCmax, Arithmetic Mean / DNCmax, Geometric Mean / tlag, Median / tlast, Median / λz, Arithmetic Mean / λz, Geometric Mean / DNAUC0-inf, GLS Mean / DNAUC0-last, GLS Mean / DNCmax, GLS Mean: oral, fasted; for DNAUC0-inf, GLS Mean / DNAUC0-last, GLS Mean / DNCmax, GLS Mean: ANOVA
Description: This study in healthy adult subjects was designed to establish the pharmacokinetic (PK) and pharmacodynamic (PD) profiles for the orally administered test product (coated mini-tablets in a capsule) and reference product (mini-tablet) to evaluate relative bioavailability in Part 1 and to evaluate the food effect on the bioavailability of test product (capsule only) in Part 2.
This was a single center, open-label, randomized, Phase 1 study in healthy adult subjects. This study consisted of 2 parts: Part 1 was a 4-sequence, 4-treatment, 4 Treatment Periods, crossover study to determine the relative bioavailability of current tablets to new capsule formulations of LUM-201; Part 2 was a 2-sequence, 2-treatment, 2 Treatment Periods, crossover study to evaluate the food effect on the bioavailability of the new capsule formulation of LUM-201. An individual subject was allowed to participate in only 1 part (Part 1 or Part 2) of the study. Forty subjects were planned and enrolled in this study. • Part 1: A total of 28 subjects were planned and enrolled in Part 1. Part 1 consisted of 4 sequences, each having 4 Treatment Periods enrolling 7 subjects (1:1:1:1 ratio). During Treatment Periods 1 through 4, each subject received 4 single oral doses of LUM-201 drug product in a randomized, crossover order. • Part 2: A total of 12 subjects were planned and enrolled in Part 2. Part 2 consisted of 2 sequences, each having 2 Treatment Periods enrolling 6 subjects (1:1 ratio). Each subject received a single oral dose of LUM-201 at each Treatment Period. During Treatment Periods 1 and 2, each subject received 2 single oral doses of LUM-201 in a randomized, crossover order. • On Day 1 of Treatment Period 1, subjects were administered the assigned treatment (A or B) as randomized, followed by a washout of at least 3 days between Treatment Periods 1 and 2. Subjects stayed in-house (not discharged) between the Treatment Periods. • Treatment A was dosed at 85.3 mg capsule formulation of LUM-201 (intact capsule consumed unopened) consumed while subject was in a fasted state with 240 mL of water. • Treatment B was dosed at 85.3 mg capsule formulation of LUM-201 (intact capsule consumed unopened) consumed 30 minutes after start of a high-fat meal with 240 mL of water. • Subjects were discharged from the study center on the morning of Day 3 of Treatment Period 2 after the scheduled study assessments had been completed.
• Treatment A (reference): five 18 mg oral tablets of LUM-201 were administered under fasted state with 240 mL of water. • Treatment B (test): a single 85.3 mg dose of oral capsule formulation of LUM-201 was administered as a whole capsule under fasted state with 240 mL of water. • Treatment C (test): a single 85.3 mg dose of oral capsule formulation of LUM-201 was administered by dosing capsule contents (dry) under fasted state with 240 mL of water. • Treatment D (test): a single 85.3 mg dose of oral capsule formulation of LUM-201 was mixed (capsule contents) with banana puree (2 teaspoons), followed by 240 mL of water and was ingested within 5 minutes under fasted state (Note: Banana Puree, single serve cup was used [118.3 mL]). […]

[1] = 85.3 mg capsule, Treatments B, C and D
[2] = Part 1, Treatment A (reference): five 18 mg tablets (90 mg)
[3] = Part 1, Treatment B (test): 85.3 mg whole capsule
[4] = Part 1, Treatment C (test): 85.3 mg capsule contents (dry)
[5] = Part 1, Treatment D (test): 85.3 mg capsule contents in banana puree

- bioequivalence of DNAUC0-last and AUC0-inf to the 90 mg tablet, fasted (Treatment A) [1]: bioequivalent
- bioequivalence of DNCmax to the 90 mg tablet dose, fasted (Treatment A) [1]: not bioequivalent
- % AUCex, Arithmetic Mean [2]: 1.763%
- % AUCex, Geometric Mean [2]: 1.652%
- Clast, Arithmetic Mean [2]: 0.8783 ng/mL
- Clast, Geometric Mean [2]: 0.8225 ng/mL
- DNAUC0-inf, Arithmetic Mean [2]: 6.998 ng·h/mL/mg
- DNAUC0-inf, Geometric Mean [2]: 6.247 ng·h/mL/mg
- DNAUC0-last, Arithmetic Mean [2]: 6.885 ng·h/mL/mg
- DNAUC0-last, Geometric Mean [2]: 6.137 ng·h/mL/mg
- DNCmax, Arithmetic Mean [2]: 1.464 ng/mL/mg
- DNCmax, Geometric Mean [2]: 1.267 ng/mL/mg
- tlag, Median [2]: 0 h
- tlast, Median [2]: 36.34 h
- λz, Arithmetic Mean [2]: 0.0901 h⁻¹
- λz, Geometric Mean [2]: 0.0886 h⁻¹
- DNAUC0-inf, GLS Mean [2]: 6.25 ng·h/mL/mg
- DNAUC0-last, GLS Mean [2]: 6.14 ng·h/mL/mg
- DNCmax, GLS Mean [2]: 1.27 ng/mL/mg
- % AUCex, Arithmetic Mean [3]: 1.748%
- % AUCex, Geometric Mean [3]: 1.630%
- Clast, Arithmetic Mean [3]: 0.7461 ng/mL
- Clast, Geometric Mean [3]: 0.7189 ng/mL
- DNAUC0-inf, Arithmetic Mean [3]: 6.638 ng·h/mL/mg
- DNAUC0-inf, Geometric Mean [3]: 6.008 ng·h/mL/mg
- DNAUC0-last, Arithmetic Mean [3]: 6.534 ng·h/mL/mg
- DNAUC0-last, Geometric Mean [3]: 5.903 ng·h/mL/mg
- DNCmax, Arithmetic Mean [3]: 1.353 ng/mL/mg
- DNCmax, Geometric Mean [3]: 1.092 ng/mL/mg
- tlag, Median [3]: 0.2494 h
- tlast, Median [3]: 47.93 h
- λz, Arithmetic Mean [3]: 0.0877 h⁻¹
- λz, Geometric Mean [3]: 0.086 h⁻¹
- DNAUC0-inf, GLS Mean [3]: 5.97 ng·h/mL/mg
- DNAUC0-last, GLS Mean [3]: 5.86 ng·h/mL/mg
- DNCmax, GLS Mean [3]: 1.09 ng/mL/mg
- % AUCex, Arithmetic Mean [4]: 1.859%
- % AUCex, Geometric Mean [4]: 1.673%
- Clast, Arithmetic Mean [4]: 0.7612 ng/mL
- Clast, Geometric Mean [4]: 0.7309 ng/mL
- DNAUC0-inf, Arithmetic Mean [4]: 6.832 ng·h/mL/mg
- DNAUC0-inf, Geometric Mean [4]: 6.259 ng·h/mL/mg
- DNAUC0-last, Arithmetic Mean [4]: 6.721 ng·h/mL/mg
- DNAUC0-last, Geometric Mean [4]: 6.142 ng·h/mL/mg
- DNCmax, Arithmetic Mean [4]: 1.159 ng/mL/mg
- DNCmax, Geometric Mean [4]: 1.014 ng/mL/mg
- tlag, Median [4]: 0 h
- tlast, Median [4]: 48.07 h
- λz, Arithmetic Mean [4]: 0.0829 h⁻¹
- λz, Geometric Mean [4]: 0.0818 h⁻¹
- DNAUC0-inf, GLS Mean [4]: 6.21 ng·h/mL/mg
- DNAUC0-last, GLS Mean [4]: 6.10 ng·h/mL/mg
- DNCmax, GLS Mean [4]: 1.01 ng/mL/mg
- % AUCex, Arithmetic Mean [5]: 1.932%
- % AUCex, Geometric Mean [5]: 1.703%
- Clast, Arithmetic Mean [5]: 0.8723 ng/mL
- Clast, Geometric Mean [5]: 0.7962 ng/mL
- DNAUC0-inf, Arithmetic Mean [5]: 7.377 ng·h/mL/mg
- DNAUC0-inf, Geometric Mean [5]: 6.400 ng·h/mL/mg
- DNAUC0-last, Arithmetic Mean [5]: 7.254 ng·h/mL/mg
Compound: CC(C)(N)C(=O)N[C@H](COCc1ccccc1)C(=O)N1CCC2(CC1)CN(S(C)(=O)=O)c1ccccc12 [LUM-201, N-[1(R)-[(1,2-dihydro-1-methanesulfonylspiro[3H-indole-3,4′-piperdin]-yl)carbonyl]-2-(phenylmethyloxy)ethyl]-2-amino-2-methylpropanamide methanesulfonate]
